Data reported in patent publication US11344574B2, “Fluoro substituted porphyrin compounds, pharmaceutical compositions comprising the same, and methods of preparing and using the same” (Duke University, priority 2017, dated 2022).
“Also recorded” adds a separate entry of the source.

What was measured:
[1] = tested on: radiation-induced erectile dysfunction; assay: Radioprotection of erectile function after 20 Gy radiation; format: in vivo; settings: rats, 0.5 mg/kg sc, single 20 Gy RT, with and without ascorbate, 9 weeks
Protocol: Mn4 administration started at 24 hours before RT. Mn4 was given at 0.5 mg/kg sc for the first four weeks daily (except for weekends) and then twice weekly for next five weeks. Single 20 Gy RT dose was given stereotactically.
10 rats per group were studied. MnF3Pen was given at 0.5 mg/kg sc for the first four weeks daily except for weekends, and then twice weekly for the next five weeks.
Single radiation dose of 20 Gy was delivered stereotactically, using image guided small animal radiator.
It was used at 0.1 mg/kg (at week 6 and 9).
Based on earlier studies, erectile dysfunction has been assessed at 9 weeks. […] Mn4 administration started at 24 hours before RT. Mn4 was given at 0.5 mg/kg sc for the first 4 weeks daily except for weekends, and then twice weekly for the next 5 weeks. Single 20 Gy RT dose was given.

prostate tissue = assay: Radioprotection of prostate tissue, histopathology (H&E); settings: for radioprotection of prostate tissue: rats, 0.5 mg/kg sc, single 20 Gy RT, 0.5 mg/kg
Protocol: Tissue was stained with H&E.
Mn4 administration started at 24 hours before RT. Mn4 was given at 0.5 mg/kg sc for the first 4 weeks daily except for weekends, and then twice weekly for the next 5 weeks. Single 20 Gy RT dose was given.
The tissues were preserved, half of them in formalin and another half snap-frozen for different analyses. Prostate is the only tissue directly radiated and the penile function was known to suffer radiation damage.

[2] = Ability of MnP to catalyze ascorbate oxidation, initial rates assessed spectrally; settings: initial rate of ascorbate oxidation; 10 μM MnP, 1 mM Asc, aerobic, 25 °C, pH 7.8
[3] = Brain accumulation of MnPs with different administration routes; format: in vivo; settings: route-dependent
From the text: MnF3Pen accumulates in the brain at levels which are (route-dependently) up to 50% lower than those of MnBuOE due to its more polar fluorine atoms.

[4] = Pharmacokinetic studies in plasma and organs, 1 mg/kg; format: in vivo, rats; settings: for Cmax: male, rat
Protocol: Whenever possible, the PK profiles of MnF3Pen were compared to MnTnBuOE-2-PyP^5+ (MnBuOE, Mn2), the drug presently in two clinical trials.
3 rats were used per time point. The following time points were tested: 30 min, 1, 2, 6, 24 hours, and 3 and 7 days. The tissues were taken after the rats were perfused with PBS to eliminate blood content of organs and, therefore its interference with blood content of organs. At 6 h, three additional rats were used to assess the effect of perfusion. In addition to plasma, the following organs were analyzed: liver, kidney, prostate, penis, testis, rectum, bladder, and brain. We have collected liver due to Mn porphyrins accumulating at the highest level in this organ; it then serves as a depot to maintain levels of drug in plasma and other organs. We also took the brain because toxicity of Mn porphyrins has been seen at that level present in the brain. Whenever possible the comparison with MnBuOE has been done. […] MnBuOE was used as internal standard.

[5] = Metal-centered reduction potential for the Mn^IIIP/Mn^IIP redox couple; format: physicochemical; settings: vs normal hydrogen electrode
[6] = SOD mimicking: catalysis of O2.^− dismutation; format: biochemical; settings: ability to mimic SOD enzyme in catalysis of O2.^− dismutation
[7] = Lipophilicity by TLC retention factor Rf on silica; format: physicochemical; settings: vs two non-fluorinated lipophilic analogs
From the text: Fluorination enhances the lipophilicity of MnPs as described with TLC retention factor, Rf (compound path/solvent path). Rf was obtained on silica gel plates using acetonitrile:KNO3(sat):water=8:1:1 as previously described (Tovmasyan A, Carballal S, Ghazaryan R, Melikyan L, Weitner T, Maia C G, Reboucas J S, Radi R, Spasojevic I, Benov L, and Batinic-Haberle I. Rational Design of Superoxide Dismutase (SOD) Mimics: The Evaluation of the Therapeutic Potential of New Cationic Mn Porphyrins with Linear and Cyclic Substituents. Inorg Chem 53: 11467-83, 2014).
In some embodiments, the fluoro-substituted porphyrins of the present invention may have enhanced lipophilicity (e.g., compared to non-fluoro-substituted porphyrins). Lipophilicity can be measured via thin layer chromatography. The relative lipophilicity of a group of compounds can be determined in a given solvent system. […] The fluoro-substituted porphyrins of the present invention suitably have a lipophilicity of greater than zero in a solvent system of acetonitrile:water:KNO3 (saturated aqueous) (8:1:1). Alternatively, the lipophilicity may be quantified by the standard octanol/water partition coefficient (log P). In some embodiments, the lipophilic fluoro-substituted porphyrins may have a greater bioavailability than their hydrophilic analogs. […]

4T1 breast tumor = assay: Mouse flank 4T1 tumor radio- and chemosensitization study, MnP 0.2 mg/kg; format: in vivo; settings: triple combination MnP 0.2 mg/kg sc + ascorbate + radiation, listed as MnTF3Pen-2-PyP^5+
Protocol: Female Balb/c mice were injected subcutaneously (on flank) with 1 million cells. […] 24 hours after the first injection of Mn porphyrins the radiation started at 2.5 Gy per day for 3 days. Fractionated radiation regime was used to better reflect the clinical scenario. […] Injection of drugs was continued daily. Once the study was completed when mice reached on average 2000 mm^3 volume, the mice were sacrificed, and tumors, normal muscle from opposite leg and liver were collected and levels of Mn porphyrins analyzed by LCMS/MS.

[8] = Maximal tolerable dose (MTD) studies; format: in vivo, rats; settings: subcutaneous
Protocol: The dose we identified as entirely safe was then given for 2 weeks. […] A dose above 0.5 mg/kg of MnTF3Pen-2-PyP^5+ seems to impose some toxicity expressed as hypotonia and reluctance to ambulate. We have thus decided to continue with 0.5 mg/kg which appears as safe non-toxic MTD dose for multiple dosing.

[9] = Toxicity in a rat and mouse study; format: in vivo
From the text: Also, such differences could not have been anticipated based just on the aqueous chemistry and diverse physical properties of those compounds. Such effects likely result from the differences in the polarities of those molecules: strongly polar character of 12 fluorine atoms relative to 4 polar oxygen atoms. […] Despite being equally lipophilic, a higher efficacy of MnTF3Pen-2-PyP^5+ than MnTnBuOE-2-PyP^5+ was observed.

wild strain E. coli = assay: Toxicity by aerobic growth of wild strain E. coli; format: cell-based; settings: vs MnTnHex-2-PyP^5+ and MnTnBuOE-2-PyP^5+
Protocol: Herein we explored the member of a new class of Mn porphyrin-based therapeutics, MnTF3Pen-2-PyP^5+ (MnTF3Pen, Mn4) (FIG. 1). We have maintained major structural properties that support the redox-activity of MnPs, yet modified peripheral substituents by introducing polar fluorine atoms. […] The properties of Mn porphyrins (given in arbitrary units) which cumulatively define their therapeutic index: SOD-like activities, lipophilicities and toxicities. […] Toxicities are evaluated based on the aerobic growth of wild strain E. coli—a simple but accurate assay used for over 2 decades to identify the compounds with clinical potential.

Structure (SMILES): FC(F)(F)CCCC[n+]1ccccc1C1=C2C=CC3=[N+]2[Mn]24[n]5c1ccc5C(c1cccc[n+]1CCCCC(F)(F)F)=C1C=CC(=[N+]12)C(c1cccc[n+]1CCCCC(F)(F)F)=c1ccc([n]14)=C3c1cccc[n+]1CCCCC(F)(F)F [Mn4, 5,10,15,20-tetra(Mn(III) 5′,5′,5′-trifluoropentylpyridinium-2-yl)porphinato pentachloride]
- prevention of radiation-induced erectile dysfunction [1]: fully prevented radiation-induced erectile dysfunction
- morphological findings, prostate glands (prostate tissue; RT+Mn4+Asc group (heading printed twice)): Local glands presented few large bizarre nuclei, some cells showed enlarged irregular nucleus and obvious nucleolus
- radioprotection of prostate tissue (prostate tissue): significant radioprotection of prostate tissue
- radioprotection of prostate tissue (prostate tissue; listed as MnTF3Pen-2-PyP^5+): suppresses radiation (RT) damage to prostate tissue
- bladder and rectum pathology (prostate tissue; with respect to control non-radiated tissues): no changes on bladder and rectum pathology
- v0(Asc oxid) [2]: 297 nM/s
- brain levels lower than those of MnBuOE [3]: up to 50%
- levels in the tissues of interest ([4]; 1 mg/kg): higher than 100 nM
- tolerability ([4]; 1 mg/kg): well tolerated
- accumulation in liver ([4]; 1 mg/kg, vs MnBuOE): lower accumulation in liver
- plasma half-life ([4]; 1 mg/kg, vs MnBuOE): longer plasma half-life
- levels in all tissues of interest ([4]; FIG. 11): above 0.1 μM
- highest levels, liver ([4]; liver, FIG. 11): about 1 μM
- Cmax ([4]; bladder, 1 mg/kg): 450 nM
- Cmax ([4]; penis, 1 mg/kg): 250 nM
- Cmax ([4]; prostate, 1 mg/kg): 150 nM
- Cmax ([4]; rectum, 1 mg/kg): 105 nM
- Cmax ([4]; testes, 1 mg/kg): 190 nM
- E1/2, mV vs NHE [5]: +288 mV
- log kcat (O2−^•) [6]: 7.48
- lipophilicity (in words) [7]: more lipophilic
- tumor growth inhibition (4T1 breast tumor): larger tumor growth inhibition; also recorded: Strong tumor suppression
- MTD at 2 weeks ([8]; rat, in vivo, sc, safe non-toxic dose for multiple dosing): 0.5 mg/kg
- dose imposing some toxicity (hypotonia, reluctance to ambulate) [8]: above 0.5 mg/kg
- toxicity compared with MnTnBuOE-2-PyP^5+ [9]: less toxicity
- toxicity (wild strain E. coli): less toxic
